Data reported in PubChem BioAssay (NCI).
Several values for one entry are separate records, joined by “and”; a condition that tells them apart may be missing. Equal values may be shown once.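 Protocol summary: plate cells (96-well), add compound at 5 concentrations, incubate 48 h, interpolate endpoints linearly. The concentration for 50% growth inhibition is given as GI50. Definition used: TGI = concentration required for complete inhibition of growth.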

Columns and labels:
Test in all cases: NCI anticancer screen, dose series, 48 h
HT29 colon = test system: HT29 colon
CCRF-CEM leukemia = test system: CCRF-CEM leukemia
OVCAR-4 ovarian = test system: OVCAR-4 ovarian
PC-3 prostate = test system: PC-3 prostate
HCC-2998 colon = test system: HCC-2998 colon
CAKI-1 renal = test system: CAKI-1 renal
786-0 renal = test system: 786-0 renal
SK-OV-3 ovarian = test system: SK-OV-3 ovarian
LOX IMVI melanoma = test system: LOX IMVI melanoma
SF-539 CNS = test system: SF-539 CNS

N#Cc1ccc(/C=C/C(=O)c2ccccc2)cc1
GI50 (HT29 colon): 2.33 µM and 2.53 µM
TGI (HT29 colon): 6.05 µM and 7 µM
GI50 (CCRF-CEM leukemia): 8.31 µM and 2.86 µM
TGI (CCRF-CEM leukemia): > 57 µM and 11.5 µM
GI50 (OVCAR-4 ovarian): 16.5 µM and 13.2 µM
TGI (OVCAR-4 ovarian): 36.5 µM and 27 µM
GI50 (PC-3 prostate): 13 µM and 10.7 µM
TGI (PC-3 prostate): 31.4 µM and 26.6 µM
GI50 (HCC-2998 colon): 5.82 µM and 5.13 µM
TGI (HCC-2998 colon): 10.7 µM and 10.3 µM
GI50 (CAKI-1 renal): 15.1 µM and 9.59 µM
TGI (CAKI-1 renal): 29.6 µM and 22.8 µM
GI50 (786-0 renal): 15.9 µM and 14.6 µM
TGI (786-0 renal): > 52.2 µM and 29.2 µM
GI50 (SK-OV-3 ovarian): 17.3 µM and 20.2 µM
TGI (SK-OV-3 ovarian): 33.2 µM and 44.9 µM
GI50 (LOX IMVI melanoma): 2.41 µM and 3.3 µM
TGI (LOX IMVI melanoma): 6.12 µM and 9.23 µM
GI50 (SF-539 CNS): 13.9 µM and 15.9 µM
TGI (SF-539 CNS): 26.9 µM and 29.4 µM

CCc1ccc([O-])c(C=NCCCN(C)CCCN=Cc2cc(C)ccc2[O-])c1.[Co+3].[N-]=[N+]=[N-]
GI50 (HT29 colon): 50 µg/mL and > 150 µg/mL
TGI (HT29 colon): 50 µg/mL and > 150 µg/mL
GI50 (CCRF-CEM leukemia): > 150 µg/mL
TGI (CCRF-CEM leukemia): > 150 µg/mL
GI50 (OVCAR-4 ovarian): 50 µg/mL and 90.8 µg/mL
TGI (OVCAR-4 ovarian): 50 µg/mL and > 150 µg/mL
GI50 (PC-3 prostate): 29.5 µg/mL
TGI (PC-3 prostate): 50 µg/mL
GI50 (HCC-2998 colon): 50 µg/mL and 123 µg/mL
TGI (HCC-2998 colon): 50 µg/mL and > 150 µg/mL
GI50 (CAKI-1 renal): 50 µg/mL and 66.9 µg/mL
TGI (CAKI-1 renal): 50 µg/mL and > 150 µg/mL
GI50 (786-0 renal): 43.1 µg/mL
TGI (786-0 renal): 50 µg/mL
GI50 (SK-OV-3 ovarian): 12.9 µg/mL and 37.3 µg/mL
TGI (SK-OV-3 ovarian): 50 µg/mL and 85.9 µg/mL
GI50 (LOX IMVI melanoma): 41.3 µg/mL
TGI (LOX IMVI melanoma): > 150 µg/mL
GI50 (SF-539 CNS): 50 µg/mL and 22.7 µg/mL
TGI (SF-539 CNS): 50 µg/mL and 82.3 µg/mL

COc1ccc(-c2nc3sccn3c2-c2ccnc(NCCCNS(=O)(=O)c3ccc(F)cc3)n2)cc1
GI50 (HT29 colon): 2.16 µM
TGI (HT29 colon): > 100 µM
GI50 (CCRF-CEM leukemia): 1.52 µM
TGI (CCRF-CEM leukemia): > 100 µM
GI50 (OVCAR-4 ovarian): 2.49 µM
TGI (OVCAR-4 ovarian): 8.4 µM
GI50 (PC-3 prostate): 1.74 µM
TGI (PC-3 prostate): 6.75 µM
GI50 (HCC-2998 colon): 5.11 µM
TGI (HCC-2998 colon): 57.2 µM
GI50 (CAKI-1 renal): 2.5 µM
TGI (CAKI-1 renal): 7.29 µM
GI50 (786-0 renal): 5.13 µM
TGI (786-0 renal): > 100 µM
GI50 (SK-OV-3 ovarian): 3.93 µM
TGI (SK-OV-3 ovarian): > 100 µM
GI50 (LOX IMVI melanoma): 1.91 µM
TGI (LOX IMVI melanoma): 5.82 µM
GI50 (SF-539 CNS): 2.91 µM
TGI (SF-539 CNS): 8.67 µM

COc1cc(Cn2c(SCC(=O)Nc3ccc(Cl)cc3)nc3ccccc3c2=O)cc(OC)c1OC
GI50 (CCRF-CEM leukemia): > 100 µM
TGI (CCRF-CEM leukemia): > 100 µM
GI50 (OVCAR-4 ovarian): 3.01 µM
TGI (OVCAR-4 ovarian): 13.9 µM
GI50 (PC-3 prostate): 16.7 µM
TGI (PC-3 prostate): > 100 µM
GI50 (HCC-2998 colon): 26.6 µM
TGI (HCC-2998 colon): > 100 µM
GI50 (CAKI-1 renal): 11.3 µM
TGI (CAKI-1 renal): 58.1 µM
GI50 (786-0 renal): 3.37 µM
TGI (786-0 renal): 12.3 µM
GI50 (SK-OV-3 ovarian): 4.2 µM
TGI (SK-OV-3 ovarian): 16.7 µM
GI50 (LOX IMVI melanoma): 13.5 µM
TGI (LOX IMVI melanoma): > 100 µM
GI50 (SF-539 CNS): 2.29 µM
TGI (SF-539 CNS): 6.5 µM

O=C(c1ccco1)c1c(C(F)(F)F)n([O-])c2ccc(F)cc2[n+]1=O
GI50 (CCRF-CEM leukemia): 0.4 µM
TGI (CCRF-CEM leukemia): 2.97 µM
GI50 (OVCAR-4 ovarian): 1.35 µM
TGI (OVCAR-4 ovarian): 2.64 µM
GI50 (PC-3 prostate): 1.01 µM
TGI (PC-3 prostate): 2.47 µM
GI50 (HCC-2998 colon): 0.775 µM
TGI (HCC-2998 colon): 2.02 µM
GI50 (CAKI-1 renal): 1.6 µM
TGI (CAKI-1 renal): 3.26 µM
GI50 (786-0 renal): 1.27 µM
TGI (786-0 renal): 3.94 µM
GI50 (SK-OV-3 ovarian): 6.02 µM
TGI (SK-OV-3 ovarian): 18.6 µM
GI50 (LOX IMVI melanoma): 0.785 µM
TGI (LOX IMVI melanoma): 2.24 µM
GI50 (SF-539 CNS): 2.55 µM
TGI (SF-539 CNS): 8.32 µM

CNCCNc1nc2ccccc2c2c(=O)c3cccc(C)c3sc12
GI50 (HT29 colon): 0.887 µM
TGI (HT29 colon): 1.92 µM
GI50 (CCRF-CEM leukemia): 1.28 µM
TGI (CCRF-CEM leukemia): 3.85 µM
GI50 (OVCAR-4 ovarian): 2.1 µM
TGI (OVCAR-4 ovarian): 8.75 µM
GI50 (PC-3 prostate): 1.55 µM
TGI (PC-3 prostate): 8.7 µM
GI50 (HCC-2998 colon): 0.824 µM
TGI (HCC-2998 colon): 1.65 µM
GI50 (CAKI-1 renal): 1.16 µM
TGI (CAKI-1 renal): 6.73 µM
GI50 (786-0 renal): 4.07 µM
TGI (786-0 renal): 11.5 µM
GI50 (LOX IMVI melanoma): 0.791 µM
TGI (LOX IMVI melanoma): 1.49 µM
GI50 (SF-539 CNS): 6.42 µM
TGI (SF-539 CNS): 12.8 µM
